Active and inactive are the calls of the source. The rule behind the calls is not given here.
How the values were obtained:
Rattus norvegicus [1] = organism: Rattus norvegicus; experiment: Activation of CIRBP protein expression in rat R28 cells at 10 uM at 37 degC after 4 days by Western blot; assay type: functional, cell-based
[2] = Cytotoxicity against rat R28 cells assessed as reduction in cell viability at 10 uM after 4 days by MTS assay; assay type: cell-based; details: 96 h
[3] = Cytotoxicity against rat R28 cells assessed as reduction in cell viability at 250 uM after 4 days by MTS assay; assay type: cell-based; details: 96 h
Rattus norvegicus [4] = experiment: Up regulation of CIRBP protein expression in Sprague-Dawley albino rat lung at 20 nmol/kg, ip measured after 4 days post dose by Western blot analysis; assay type: functional, organism-based
Rattus norvegicus [5] = experiment: Up regulation of CIRBP protein expression in Sprague-Dawley albino rat retina at 20 nmol/kg, ip measured after 4 days post dose by Western blot analysis; assay type: functional, organism-based
Rattus norvegicus [6] = experiment: Up regulation of CIRBP protein expression in Sprague-Dawley albino rat central nervous system at 20 nmol/kg, ip measured after 4 days post dose by Western blot analysis; assay type: functional, organism-based
Rattus norvegicus [7] = experiment: Up regulation of CIRBP protein expression in Sprague-Dawley albino rat heart at 20 nmol/kg, ip measured after 4 days post dose by Western blot analysis; assay type: functional, organism-based
Rattus norvegicus [8] = experiment: Up regulation of CIRBP protein expression in Sprague-Dawley albino rat colon at 20 nmol/kg, ip measured after 4 days post dose by Western blot analysis; assay type: functional, organism-based
Rattus norvegicus [9] = experiment: Up regulation of CIRBP protein expression in Sprague-Dawley albino rat subcutaneous fat tissue at 20 nmol/kg, ip measured after 4 days post dose by Western blot analysis; assay type: functional, organism-based
Rattus norvegicus [10] = experiment: Up regulation of CIRBP protein expression in Sprague-Dawley albino rat testis at 20 nmol/kg, ip measured after 4 days post dose by Western blot analysis; assay type: functional, organism-based
Rattus norvegicus [11] = experiment: Up regulation of CIRBP protein expression in Sprague-Dawley albino rat brain cortex at 20 nmol/kg, ip measured after 4 days post dose by Western blot analysis; assay type: functional, organism-based
Rattus norvegicus [12] = experiment: Up regulation of CIRBP protein expression in Sprague-Dawley albino rat pancreas at 20 nmol/kg, ip measured after 4 days post dose by Western blot analysis; assay type: functional, organism-based

| Compound | Activity (Rattus norvegicus [1]) | other results |
| --- | --- | --- |
| N=C(N)NC(=N)Nc1ccc(O)cc1 | inactive |  |
| COC(=O)C1C[C@@H](O)[C@@H](O)[C@@H](O)C1 (stereo not given in full) | inactive |  |
| Cc1cc(-n2cc(-c3ccc(O)cc3)nn2)ccc1O | Active |  |
| COc1cccc2c1C(=O)c1c(O)c3c(c(O)c1C2=O)CC(O)(/C(C)=N/O)CC3CC1CC(N)C(O)C(C)O1 (stereo not given) |  | Activity [2]: Toxic |
| Cc1cc(O)ccc1-n1cc(-c2cccc(O)c2)nn1 | inactive |  |
| O=c1c(O)cccc2cc(O)c(O)c(O)c12 [PURPUROGALLIN] |  | Activity [2]: Toxic |
| O=C(/C=C/c1ccc(O)c(O)c1)OC1C(O)CC(OC(=O)/C=C/c2ccc(O)c(O)c2)(C(=O)O)CC1O (stereo not given) |  | Activity [2]: Toxic |
| Nc1ncnc2c1ncn2[C@@H]1O[C@H](CO)[C@H](O)[C@@H]1N | inactive |  |
| COC(=O)CSc1nc(N)nc2c1ncn2CCO | inactive |  |
| CCN(CC)CCn1cnc2c(SCC(=O)O)nc(N)nc21 | Active | Activity [3]: Non-Toxic; Activity (Rattus norvegicus [4]): Active; Activity (Rattus norvegicus [5]): inactive; Activity (Rattus norvegicus [6]): inactive; Activity (Rattus norvegicus [7]): Active; Activity (Rattus norvegicus [8]): Active; Activity (Rattus norvegicus [9]): Active; Activity (Rattus norvegicus [10]): Active; Activity (Rattus norvegicus [11]): inactive; Activity (Rattus norvegicus [12]): Active |
| COCCn1cnc2c(SCC(=O)OC)nc(N)nc21 | inactive |  |
| Oc1cc(NCC2CCCCC2)c(O)cc1CNC1CCCCC1 | inactive |  |
| Nc1nc(SCC(=O)O)c2ncn(Cc3ccccc3)c2n1 | inactive |  |
| COC(=O)CSc1nc(N)nc2c1ncn2Cc1ccccc1 | Active |  |
| O=C(O)c1cc(-n2cc(-c3cccc(O)c3)nn2)ccc1O | inactive |  |
| NC(=O)Oc1cccc(OC(N)=O)c1 | inactive |  |
| COC(=O)CSc1nc(N)nc2c1ncn2Cc1ccc(OC)cc1 | inactive |  |
| Oc1ccc(-c2cn(-c3ccc(O)c(C(F)(F)F)c3)nn2)cc1 | Active |  |
| O=C(NO)[C@@H](Cc1ccccc1)NS(=O)(=O)c1ccc(-n2cc(-c3ccc(Oc4ccccc4)cc3)nn2)cc1 |  | Activity [2]: Toxic |
| Oc1cccc(-c2cn(-c3ccc(O)c(F)c3)nn2)c1 | Active |  |
| CC1(C)N=C(N)N=C(N)N1c1cccc(CN)c1 | inactive |  |
| OCc1ncccc1O | inactive |  |
| C=CCn1cnc2c(SCC(=O)OC)nc(N)nc21 | inactive |  |
| CC(=O)N1C(=O)C2(NCC(C)N2)c2ccccc21 (stereo not given) | inactive |  |
| COC(=O)CSc1nc(N)nc2c1ncn2CC1CC1 | inactive |  |
